Experimental data reported in US11471459B2, “Compounds with enhanced anti-tumor effects” (FONDAZIONE PER L'ISTITUTO ONCOLOGICO DI RICERCA (IOR), priority 2018, dated 2022).
pIC50: −log10 of the molar value.

Tests used:
[1] = test system: 39 lymphoma cell lines; assay: Proliferation MTT assay, median across the 39 cell lines; type: cell-based; conditions: 95% C.I. 100-20000 nM, 72 h
Protocol: Thirty-nine cell lines derived from activated B cell-like (ABC) (n=3) and germinal center B Cell (GCB) (n=12) diffuse large B cell lymphoma (DLBCL), mantle cell lymphoma (MCL) (n=9), chronic lymphocytic leukemia (CLL) (n=2), Hodgkin lymphoma (HL) (n=4), cutaneous T cell lymphoma (CTCL) (n=3), peripheral T cell lymphoma (PTCL) (n=1), anaplastic large T cell lymphoma (ALCL) (n=4), acute T cell leukemia (ATCL) (n=1) were cultured according to the recommended conditions. All media were supplemented with fetal bovine serum (10%), Penicillin-Streptomycin-Neomycin (˜5,000 units penicillin, 5 mg streptomycin and 10 mg neomycin/mL, Sigma) and L-glutamine (1%). […]
Cells were seeded in 96-well plates (non-tissue culture treated) at a density of 10,000 cells for all cell lines. […] Wells containing medium only were included on each plate and served as blanks for absorbance readings. […] Cells were then lysed with 25% SDS lysis buffer and absorbance was read at 570 nm using an AD340 plate reader (Beckman Coulter International SA, Switzerland). Absorbance values were expressed in percentage of proliferating cells in comparison with control cells (control corresponds to 100%).
Binomial exact 95% confidence intervals (95% C.I.s) were calculated for median percentages. Differences in IC50 values among lymphoma subtypes were calculated using the t-Student test. […]

[2] = test system: REC1; assay: Propidium iodide cell cycle staining; type: cell-based, human; conditions: REC1, 500 and 2000 nM, 72 h
Protocol: Lymphoma cells (10^6 per condition) were fixed in cold 70% ethanol (for at least 30 minutes at 4° C.), added dropwise to the cell pellet while vortexing. Cells were washed ×2 in PBS and Spin at 2000 rpm; supernatant was discarded and cells suspended in PBS (0.5 mL) and treated with Ribonuclease (50 μl of 100 μg/mL RNase). Then 200 μl of propidium iodide (50 μg/ml) were added and data acquisition was performed by using BD FACS-Canto II.

[3] = test system: KARPAS-299; assay: Proliferation MTT assay, 72 h; type: cell-based; conditions: Homo sapiens, KARPAS-299 (T Cell - ALCL), 72 h exposure
Protocol: (§1) Thirty-nine cell lines derived from activated B cell-like (ABC) (n=3) and germinal center B Cell (GCB) (n=12) diffuse large B cell lymphoma (DLBCL), mantle cell lymphoma (MCL) (n=9), chronic lymphocytic leukemia (CLL) (n=2), Hodgkin lymphoma (HL) (n=4), cutaneous T cell lymphoma (CTCL) (n=3), peripheral T cell lymphoma (PTCL) (n=1), anaplastic large T cell lymphoma (ALCL) (n=4), acute T cell leukemia (ATCL) (n=1) were cultured according to the recommended conditions. All media were supplemented with fetal bovine serum (10%), Penicillin-Streptomycin-Neomycin (˜5,000 units penicillin, 5 mg streptomycin and 10 mg neomycin/mL, Sigma) and L-glutamine (1%).
(§2) EG-011 was dissolved in dimethyl sulphoxide (DMSO) to obtain a stock concentration of 10 mM for in vitro experiments. EG-011 was dissolved in 25% hydroxypropyl beta cyclodextrin (HP-β-CD) in water and adjusted at pH 6.0 using NaOH (0.1 N) and HCl (0.1 N) for in vivo experiments. Application volume was 4.5 mL/kg (100 mg in 4.5 mL), and mice received 200 microliters (corresponding to 200 mg/kg) though intra peritoneal i.p. injection, once per day and five days per week.
(§3) Cells were seeded in 96-well plates (non-tissue culture treated) at a density of 10,000 cells for all cell lines. Each compound was dissolved in dimethyl sulphoxide (DMSO). For treatment of cells, compounds were serially diluted in the appropriate tissue culture medium, at a range of 20 mcM-78 nM following a 1:2 dilution factor and added to cells (in three replicates). Cells were incubated for 72 hours at 37° C., 5% CO2. DMSO alone was added to negative control (untreated) cells. Wells containing medium only were included on each plate and served as blanks for absorbance readings. MTT (Sigma-Aldrich Chemie GmbH, Buchs, Switzerland) was prepared as a 5 mg/ml stock in PBS and filter-sterilized. MTT solution (22 μL) was added to each well and tissue culture plates were incubated at 37° C. for 4 hours. Cells were then lysed with 25% SDS lysis buffer and absorbance was read at 570 nm using an AD340 plate reader (Beckman Coulter International SA, Switzerland). Absorbance values were expressed in percentage of proliferating cells in comparison with control cells (control corresponds to 100%).

[4] = test system: GRANTA519; assay: Proliferation MTT assay, 72 h; type: cell-based; conditions: Homo sapiens, Granta-519, GRANTA519 (MCL), 72 h exposure
Protocol: as §1, §2, §3

[5] = test system: L-82; assay: Proliferation MTT assay, 72 h; type: cell-based; conditions: L-82 (T Cell - ALCL), 72 h exposure
Protocol: as §1, §2, §3

[6] = test system: PCL-12; assay: Proliferation MTT assay, 72 h; type: cell-based; conditions: PCL-12 (CLL), 72 h exposure
Protocol: as §1, §2, §3

[7] = test system: FEPD; assay: Proliferation MTT assay, 72 h; type: cell-based; conditions: FEPD (T Cell-PTCL), 72 h exposure
Protocol: as §1, §2, §3

[8] = test system: AM-HLH; assay: Proliferation MTT assay, 72 h; type: cell-based; conditions: AM-HLH (HL), 72 h exposure
Protocol: as §1, §2, §3

[9] = test system: Karpas-422; assay: Proliferation MTT assay, 72 h; type: cell-based; conditions: Homo sapiens, Karpas-422 (GCB-DLBCL), 72 h exposure
Protocol: as §1, §2, §3

[10] = test system: OCI-LY-7; assay: Proliferation MTT assay, 72 h; type: cell-based; conditions: Homo sapiens, OCI-Ly7, OCI-LY-7 (GCB-DLBCL), 72 h exposure
Protocol: as §1, §2, §3

[11] = test system: OCI-LY-3; assay: Proliferation MTT assay, 72 h; type: cell-based; conditions: Homo sapiens, OCI-Ly3, OCI-LY-3 (ABC-DLBCL), 72 h exposure
Protocol: as §1, §2, §3

[12] = test system: UPN1; assay: Proliferation MTT assay, 72 h; type: cell-based; conditions: UPN1 (MCL), 72 h exposure
Protocol: as §1, §2, §3

[13] = test system: MAC-1; assay: Proliferation MTT assay, 72 h; type: cell-based; conditions: MAC-1 (T Cell - ALCL), 72 h exposure
Protocol: as §1, §2, §3

[14] = test system: MEC1; assay: Proliferation MTT assay, 72 h; type: cell-based; conditions: Homo sapiens, MEC1 (CLL), 72 h exposure
Protocol: as §1, §2, §3

[15] = test system: SU-DHL-8; assay: Proliferation MTT assay, 72 h; type: cell-based; conditions: Homo sapiens, SU-DHL-8 (GCB-DLBCL), 72 h exposure
Protocol: as §1, §2, §3

[16] = test system: SU-DHL-16; assay: Proliferation MTT assay, 72 h; type: cell-based; conditions: Homo sapiens, SU-DHL-16 (GCB-DLBCL), 72 h exposure
Protocol: as §1, §2, §3

[17] = test system: SU-DHL-10; assay: Proliferation MTT assay, 72 h; type: cell-based; conditions: Homo sapiens, SU-DHL10, SU-DHL-10 (GCB-DLBCL), 72 h exposure
Protocol: as §1, §2, §3

[18] = test system: OCI-LY-10; assay: Proliferation MTT assay, 72 h; type: cell-based; conditions: Homo sapiens, OCI-Ly10, OCI-LY-10 (ABC-DLBCL), 72 h exposure
Protocol: as §1, §2, §3

[19] = test system: SU-DHL-2; assay: Proliferation MTT assay, 72 h; type: cell-based; conditions: Homo sapiens, SU-DHL-2 (ABC-DLBCL), 72 h exposure
Protocol: as §1, §2, §3

[20] = test system: FARAGE; assay: Proliferation MTT assay, 72 h; type: cell-based; conditions: FARAGE (GCB-DLBCL), 72 h exposure
Protocol: as §1, §2, §3

[21] = test system: JEKO1; assay: Proliferation MTT assay, 72 h; type: cell-based; conditions: Homo sapiens, JeKo-1, JEKO1 (MCL), 72 h exposure
Protocol: as §1, §2, §3

[22] = test system: MINO; assay: Proliferation MTT assay, 72 h; type: cell-based; conditions: Homo sapiens, MINO (MCL), 72 h exposure
Protocol: as §1, §2, §3

[23] = test system: JURKAT; assay: Proliferation MTT assay, 72 h; type: cell-based; conditions: Homo sapiens, JURKAT (T Cell Leukemia), 72 h exposure
Protocol: as §1, §2, §3

[24] = test system: RCK8; assay: Proliferation MTT assay, 72 h; type: cell-based; conditions: Homo sapiens, RCK8 (GCB-DLBCL), 72 h exposure
Protocol: as §1, §2, §3

[25] = test system: H9; assay: Proliferation MTT assay, 72 h; type: cell-based; conditions: Homo sapiens, H9 (T Cell - CTCL), 72 h exposure
Protocol: as §1, §2, §3

For `C=CC(=O)N1CCCC(n2c(=O)c3ncccc3n(Cc3ccc(Oc4ccccc4)cc3)c2=O)C1` (stereo not shown) [EG-011, 1-[(4-phenoxyphenyl)methyl]-3-(1-prop-2-enoyl-3-piperidyl)pyrido[3,2-d]pyrimidine-2,4-dione], the pIC50 [1] was 5.60, the “cells in the sub-GO phase (dead cells)” value [2] was “dose dependent increase of the cells in the sub-GO phase” and the pIC50 [3] was 4.70. The pIC50 [4] was 6.60, the pIC50 [5] was 5.70 and the pIC50 [6] was 5.15. The pIC50 [7] was 5.52, the pIC50 [8] was 4.74 and the pIC50 [9] was 5.82. It also gave a pIC50 [10] of 5.30, a pIC50 [11] of 5.00 and a pIC50 [12] of 6.92. The pIC50 [13] was 6.82, the pIC50 [14] was 5.10 and the pIC50 [15] was 6.52. The pIC50 [16] was 5.82, the pIC50 [17] was 6.52 and the pIC50 [18] was 5.30. The pIC50 [19] was 4.70, the pIC50 [20] was 5.70 and the pIC50 [21] was 5.40. For the same molecule, the pIC50 [22] was 7.00, the pIC50 [23] was 4.82 and the pIC50 [24] was 5.00. The pIC50 [25] was 6.00.
